Experimental data: the supplement of paper PMC11451515

Test system: SEM cells
Test: cell viability relative to DMSO control; higher = less cytotoxic
Conditions: 48 h
How it was run: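 Viability is expressed as a percentage of DMSO wells within each plate, and cell-free wells serve as background. Seeding densities in the 1536-well plates (5 μl) were 500 cells/well for NOMO1 or SEM leukemia cells and 1000 cells/well for P12-Ichikawa. Each line was adapted for at least four passages in each medium. Library compounds in DMSO were pin-dosed at 47 μM to 0.79 nM (11 points, threefold), and CellTiter-Glo One luminescence was read after 48 h at 37°C.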

[1] = HPLM + 10% dialyzed FBS, 0.000781 µM
[2] = HPLM + 10% dialyzed FBS, 0.00234 µM
[3] = HPLM + 10% dialyzed FBS, 0.00702 µM
[4] = HPLM + 10% dialyzed FBS, 0.0211 µM
[5] = HPLM + 10% dialyzed FBS, 0.0632 µM
[6] = HPLM + 10% dialyzed FBS, 0.19 µM
[7] = HPLM + 10% dialyzed FBS, 0.569 µM
[8] = HPLM + 10% dialyzed FBS, 1.71 µM
[9] = HPLM + 10% dialyzed FBS, 5.12 µM
[10] = HPLM + 10% dialyzed FBS, 15.4 µM
[11] = HPLM + 10% dialyzed FBS, 46.1 µM
[12] = RPMI 5 mM glucose + 10% FBS, 0.000781 µM
[13] = RPMI 5 mM glucose + 10% FBS, 0.00234 µM
[14] = RPMI 5 mM glucose + 10% FBS, 0.00702 µM
[15] = RPMI 5 mM glucose + 10% FBS, 0.0211 µM
[16] = RPMI 5 mM glucose + 10% FBS, 0.0632 µM
[17] = RPMI 5 mM glucose + 10% FBS, 0.19 µM
[18] = RPMI 5 mM glucose + 10% FBS, 0.569 µM
[19] = RPMI 5 mM glucose + 10% FBS, 1.71 µM
[20] = RPMI 5 mM glucose + 10% FBS, 5.12 µM
[21] = RPMI 5 mM glucose + 10% FBS, 15.4 µM
[22] = RPMI 5 mM glucose + 10% FBS, 46.1 µM
[23] = RPMI 5 mM glucose + 10% dialyzed FBS, 0.000781 µM
[24] = RPMI 5 mM glucose + 10% dialyzed FBS, 0.00234 µM
[25] = RPMI 5 mM glucose + 10% dialyzed FBS, 0.00702 µM
[26] = RPMI 5 mM glucose + 10% dialyzed FBS, 0.0211 µM
[27] = RPMI 5 mM glucose + 10% dialyzed FBS, 0.0632 µM
[28] = RPMI 5 mM glucose + 10% dialyzed FBS, 0.19 µM
[29] = RPMI 5 mM glucose + 10% dialyzed FBS, 0.569 µM
[30] = RPMI 5 mM glucose + 10% dialyzed FBS, 1.71 µM
[31] = RPMI 5 mM glucose + 10% dialyzed FBS, 5.12 µM
[32] = RPMI 5 mM glucose + 10% dialyzed FBS, 15.4 µM
[33] = RPMI 5 mM glucose + 10% dialyzed FBS, 46.1 µM

Structure (SMILES)	cell viability [1] [%]	cell viability [2] [%]	cell viability [3] [%]	cell viability [4] [%]	cell viability [5] [%]	cell viability [6] [%]	cell viability [7] [%]	cell viability [8] [%]	cell viability [9] [%]	cell viability [10] [%]	cell viability [11] [%]	cell viability [12] [%]	cell viability [13] [%]	cell viability [14] [%]	cell viability [15] [%]	cell viability [16] [%]	cell viability [17] [%]	cell viability [18] [%]	cell viability [19] [%]	cell viability [20] [%]	cell viability [21] [%]	cell viability [22] [%]	cell viability [23] [%]	cell viability [24] [%]	cell viability [25] [%]	cell viability [26] [%]	cell viability [27] [%]	cell viability [28] [%]	cell viability [29] [%]	cell viability [30] [%]	cell viability [31] [%]	cell viability [32] [%]	cell viability [33] [%]
O=C(Oc1ccc([N+](=O)[O-])cc1)N1CCC(C(O)(c2ccc3c(c2)OCO3)c2ccc3c(c2)OCO3)CC1	72.2	89.4	64.5	97	86.3	94.8	99.7	83.7	46.6	93.5	86.1	83.3	72	58.6	93.2	94.5	90.4	84	78.6	35.4	99.3	85.5	90.1	95	61.6	95.9	88.6	94.7	97.9	99.3	46.3	96.2	98.2
COc1cccc([C@@H](C)NCCCc2ccccc2Cl)c1	88.5	90.3	95.2	105	106	95.8	81.8	97.6	107	96.3	101	82.6	100	79.9	100	94	94.9	84.2	78.7	97.4	100	93.5	81.2	112	92	101	94	114	97.2	95.1	98.6	108	99.6
NC(=O)C1CCCc2c1[nH]c1ccc(Cl)cc21 (stereo not drawn)	115	120	129	125	119	141	126	64.8	27.4	3.88	1.72	119	122	134	133	126	118	140	115	63.3	5.97	1.78	109	107	109	108	111	126	108	76.8	47.4	6.13	2.95
N#Cc1ccnc(Nc2cc(C3CCN(C4COC4)CC3)cc(N3CCC(F)(F)C3)n2)c1	96.4	97.9	91.6	110	110	104	109	103	102	35.3	10.2	107	127	125	128	123	110	131	112	100	43.7	8.66	103	110	97.8	111	121	101	110	106	85.5	25.5	9.03
COc1ccc(Nc2nccc(NCCO)n2)cc1	61.7	67.9	61.4	75.8	81.4	69.6	63.7	78.6	64	75.4	64.7	75.9	80.1	78	87.4	77.1	79	78.3	85.1	42.1	91.5	92.9	64.5	65.3	73.3	95	91.8	78.6	81.4	74.7	74.1	92.5	68.2
[O-]C(=O)C1=C(C(=C(Cl)C(=C1Cl)Cl)Cl)C/2=C/3\C=C(I)/C(=O)/C(=C3OC4=C2C=C(I)C(=C4I)[O-])I	111	106	122	106	118	111	120	116	106	109	73	108	121	130	133	134	113	115	130	114	109	83.2											
Nc1nnc(-c2cccc(Cl)c2Cl)c(N)n1	80.7	80	98.9	21.9	96.6	92.1	96.5	103	105	115	92.4	71.7	74.5	85.2	13.1	97.6	96.7	104	99.1	99.9	90.4	89.7	88.5	88.1	88.2	16.1	92.1	97.5	103	101	101	107	113
COCCOc1nc(-c2ccc(Cl)c(Cl)c2)n(-c2ccc(NC(=O)CCl)cc2)n1	85.5	95.4	87.5	103	104	103	94.2	97.6	83.6	83.1	84.6	80	106	98.5	89.9	102	85.7	95.4	88	83.4	79.1	80.6	92.2	91.4	96.4	91	95.1	102	94.2	81.6	80.2	80.2	85.1
